Molecular target: T1, bromodomain of BRD9 (GST-BRD9 aa 130-259) / H3 K9/14/18/23Ac(1-28) peptide (Homo sapiens, UniProt Q9H8M2)
T1 construct: The protein corresponding to amino acids 130-259 that contains the bromodomain of BRD9; made in house; host or cells: E. coli
T1 sequence (Q9H8M2 130-259): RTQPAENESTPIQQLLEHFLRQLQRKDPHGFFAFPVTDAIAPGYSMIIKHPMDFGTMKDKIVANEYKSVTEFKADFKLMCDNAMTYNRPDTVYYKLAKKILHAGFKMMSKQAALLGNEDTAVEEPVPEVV
Experiment: BRD9-H3 tetra-acetylated Peptide Inhibition AlphaScreen
Type: binding

SMILES | IC50
COc1cc(-c2cc(C)c(=O)n(C)c2)cc(OC)c1CN(C)C1CNC1 [Compound I-207, 5-{4-[(Azetidin-3-yl-methyl-amino)-methyl]-3,5-dimethoxy-phenyl}-1,3-dimethyl-1H-pyridin-2-one] | 93 nM
COc1cc(-c2cc(C)c(=O)n(C)c2C)ccc1CN1CC(OC)C1 [Compound I-134] | 394 nM
COCc1c(OC)cc(-c2cc(C)c(=O)n(C)c2C)cc1OC [Compound I-130] | 302 nM
COc1cc(S(=O)(=O)NCCN(C)C)c(OC)cc1-c1cc(C)c(=O)n(C)c1 [Compound I-57] | 132 nM
COc1cc(-c2cc(I)c(=O)n(C)c2C)cc(OC)c1CN(C)C [Compound I-168] | 40 nM
Cc1cc(-c2ccc([C@@H](C)N)cc2)c(C)n(C)c1=O [Compound I-141] | 1860 nM
COc1cc(-c2cc(C)c(=O)n(C)c2)cc(OC)c1CNC1CNC1 [Compound I-145] | 32 nM
Cc1cc(-c2cccc(NS(C)(=O)=O)c2)cn(C)c1=O [Compound I-31, N-[3-(1,5-Dimethyl-6-oxo-1,6-dihydro-pyridin-3-yl)-phenyl]-methanesulfonamide] | 1220 nM
Cn1cc(-c2ccc(C(=O)N3CCNCC3)cc2)c2cc[nH]c2c1=O [III-6] | 81 nM
Cc1c(-c2ccc([C@H](C)N)cc2)cn(C)c(=O)c1C [Compound I-138] | 1260 nM
Cc1cc(-c2cccc(CN)c2)cn(C)c1=O [Compound I-87] | 849 nM
Cn1cc(-c2ccc(C(N)=O)cc2)c2ccncc2c1=O [II-9] | 1400 nM
Cc1cc(-c2cc(C)c(=O)n(C)c2)ccc1S(=O)(=O)N1CC(O)C1 [Compound I-75] | 393 nM
COc1cc(-c2cc(C)c(=O)n(C)c2)c(OC)cc1CN1CCNCC1 [Compound I-150] | 298 nM
COc1cc(S(=O)(=O)NC2CNC2)c(OC)cc1-c1cn(C)c(=O)c(C)c1C [Compound I-151] | 26 nM
Cc1cc(-c2cn(C)c(=O)c3ccccc23)ccc1C(=O)N(C)C [II-47] | 1190 nM
Cc1c(-c2ccc(C(N)=O)cc2)cn(C)c(=O)c1C [Compound I-213] | 5320 nM
Cc1cc(-c2ccc(C(C)N(C)C)cc2)cn(C)c1=O (stereo not shown) [Compound I-11] | 1430 nM
Cc1c(-c2ccc3c(c2)CCNC3)cn(C)c(=O)c1C [Compound I-116] | 744 nM
COc1cc(S(=O)(=O)N2CC(O)C2)c(OC)cc1-c1cc(C)c(=O)n(C)c1 [Compound I-56] | 131 nM
COc1cc(-c2cn(C)c(=O)c(C)c2C)c(OC)cc1CN1CC(O)C1 [Compound I-104] | 39 nM
Cn1cc(-c2ccc(C(=O)N3CCNCC3)cc2)c2ccccc2c1=O [II-42, 2-Methyl-4-[4-(piperazine-1-carbonyl)-phenyl]-2H-isoquinolin-1-one] | 439 nM

SMILES | IC50
COc1cc(-c2cn(C)c(=O)c3ccc(Cn4cccn4)cc23)cc(OC)c1CN(C)C [II-19] | 31 nM
COc1cc(-c2cc(C)c(=O)n(C)c2)c(OC)cc1CN1CC(O)C1 [Compound I-55] | 124 nM
Cc1cc(-c2ccc3c(c2)CNC3)c(C)n(C)c1=O [Compound I-126] | 167 nM
Cn1cc(-c2ccc(C(=O)N3CCNCC3)cc2)c2cccnc2c1=O [II-14] | 1380 nM
COc1cc(-c2cn(C)c(=O)c3ncccc23)c(OC)cc1CN(C)C [II-22] | 2140 nM
COc1cc(-c2cn(C)c(=O)c3[nH]ccc23)ccc1CN1C[C@@H]2CC1CN2C [III-4] | 62 nM
Cc1cc(-c2ccc3c(c2)CCN(C)C3)c(C)n(C)c1=O [Compound I-211] | 468 nM
Cn1cc(-c2ccc(CN)cc2)c2ccccc2c1=O [II-48] | 1550 nM
Cc1cc(-c2ccc([C@H](C)N)cc2)c(C)n(C)c1=O [Compound I-142] | 1960 nM
CN1CCN(C(=O)c2ccc(-c3cn(C)c(=O)c4cnccc34)cc2)CC1 [II-8] | 953 nM
COc1cc(-c2cn(C)c(=O)c3cncnc23)cc(OC)c1CN1CC(O)C1 [II-11] | 42 nM
COc1cc(-c2cn(C)c(=O)c3ccccc23)cc(OC)c1CN1CC(O)C1 [II-1, 4-[4-(3-Hydroxy-azetidin-1-ylmethyl)-3,5-dimethoxy-phenyl]-2-methyl-2H-isoquinolin-1-one] | 8 nM
Cc1cc(-c2ccc(C(=O)C3CCNCC3)cc2)c(C)n(C)c1=O [Compound I-129] | 284 nM
Cc1cc(-c2ccc3c(c2)CN(C)C3)c(C)n(C)c1=O [Compound I-212] | 750 nM
COc1cc(-c2cn(C)c(=O)c3[nH]ccc23)ccc1CN1C[C@@H]2CC1CN2 [III-3] | 46 nM
CN1CCN(C(=O)c2ccc(-c3cn(C)c(=O)c4[nH]ccc34)cc2)CC1 [III-9] | 391 nM
COc1cc(-c2cc(C)c(=O)n(C)c2C)cc(OC)c1CN1CCNCC1 [Compound I-124] | 144 nM
CN1CCN(C(=O)c2ccc(-c3nn(C)c(=O)c4ccccc34)cc2)CC1 [II-17] | 16300 nM
COc1cc(-c2cc(C)c(=O)n(C)c2C)c(OC)cc1CN1CCNCC1 [Compound I-156] | 1780 nM
Cc1cc(-c2ccc(Cn3ccnc3)cc2)cn(C)c1=O [Compound I-185] | 1550 nM
COc1cc(-c2cn(C)c(=O)c(C)c2C)ccc1CN1C[C@H]2C[C@@H]1CN2C [Compound I-113] | 348 nM

Continued, values first:

IC50 | SMILES
302 nM | Cc1cc(-c2ccc3c(c2)CCN(C)C3)cn(C)c1=O [Compound I-210]
521 nM | Cc1cc(-c2cc(C)c(=O)n(C)c2)ccc1S(=O)(=O)N1CCN(C)CC1 [Compound I-83]
137 nM | Cc1cc(-c2ccc(C3(N(C)C)CC3)cc2)cn(C)c1=O [Compound I-58]
1010 nM | Cc1cc(-c2ccc(CN3CCN(C)CC3)c(OC(C)C)c2)cn(C)c1=O [Compound I-196]
132 nM | COc1cc(-c2cc(C)c(=O)n(C)c2)ccc1CN1CCN(Cc2cccc(O)c2)CC1 [Compound I-200]
65 nM | Cc1cc(-c2ccc3c(c2)CNC3)cn(C)c1=O [Compound I-49, 5-(2,3-dihydro-1H-isoindol-5-yl)-1,3-dimethyl-1H-pyridin-2-one]
237 nM | COc1cc(S(=O)(=O)N2CCN(C)CC2)c(OC)cc1-c1cc(C)c(=O)n(C)c1 [Compound I-70]
230 nM | COc1cc(-c2cc(I)c(=O)n(C)c2)ccc1C(=O)N1CCN(C)CC1 [Compound I-166]
777 nM | COc1cc(-c2cc(C)c(=O)n(C)c2)ccc1CN1CCN(C)C(C)C1 (stereo not shown) [Compound I-86]
114 nM | COc1cc(-c2cc(C)c(=O)n(C)c2)cc(OC)c1CN(C)C1CN(C)C1 [Compound I-208, 5-(3,5-Dimethoxy-4-{[methyl-(1-methyl-azetidin-3-yl)-amino]-methyl}-phenyl)-1,3-dimethyl-1H-pyridin-2-one]
1400 nM | Cc1cc(-c2cn(C)c(=O)c(C)c2C)ccc1C(=O)N1CCN(C)CC1 [Compound I-117]
69 nM | COc1cc(-c2cc(C)c(=O)n(C)c2)cc(OC)c1CNC1CN(C)C1 [Compound I-205, 5-{3,5-Dimethoxy-4-[(1-methyl-azetidin-3-ylamino)-methyl]-phenyl}-1,3-dimethyl-1H-pyridin-2-one]
340 nM | Cc1cc(-c2cn(C)c(=O)c3[nH]ccc23)ccc1C(=O)N1CCN(C)CC1 [III-8]
418 nM | COc1cc(-c2cc(C)c(=O)n(C)c2)ccc1C(=O)N1C[C@@H]2CC1CN2C [Compound I-77]
89 nM | CCc1cc(-c2cc(C)c(=O)n(C)c2)cc(OC)c1C(=O)N1CCNCC1 [Compound I-157, 5-[3-Ethyl-5-methoxy-4-(piperazine-1-carbonyl)-phenyl]-1,3-dimethyl-1H-pyridin-2-one]
318 nM | Cc1cc(-c2ccc(C(C)N3CCCCC3)cc2)cn(C)c1=O (stereo not shown) [Compound I-6]
144 nM | COc1cc(-c2cc(C)c(=O)n(C)c2)ccc1S(=O)(=O)N1CCNCC1 [Compound I-148]

IC50 | SMILES
215 nM | COc1cc(-c2cc(C)c(=O)n(C)c2)ccc1C1(N2CCN(C)CC2)CC1 [Compound I-67]
116 nM | COc1cc(-c2cc(C)c(=O)n(C)c2C)ccc1C1(N(C)C)CC1 [Compound I-122]
550 nM | Cc1cc(C(=O)N2CCNCC2)ccc1-c1cc(C)c(=O)n(C)c1 [Compound I-163]
157 nM | Cc1cc(-c2ccc([C@H](C)N3CCCCC3)cc2)cn(C)c1=O [Compound I-3]
4300 nM | Cc1cc(-c2cc(C)c(=O)n(C)c2)c(C)cc1CN1CCN(C)CC1 [Compound I-187]
172 nM | Cc1cc(-c2ccc([C@@H](C)N3CCCCC3)cc2)cn(C)c1=O [Compound I-4]
950 nM | Cc1cc(-c2ccc3c(c2)CNCC3)cn(C)c1=O [Compound I-90]
1080 nM | Cc1cc(-c2ccc(C(C)N3CCOCC3)cc2)cn(C)c1=O (stereo not shown) [Compound I-10]
1210 nM | Cc1cc(-c2ccc(C3(N4CCN(C)CC4)CC3)cc2)cn(C)c1=O [Compound I-95]
160 nM | Cc1cc(-c2ccc(CN3CCNCC3)c(N(C)C)c2)cn(C)c1=O [Compound I-149, 5-(3-Dimethylamino-4-piperazin-1-ylmethyl-phenyl)-1,3-dimethyl-1H-pyridin-2-one]
137 nM | Cc1cc(-c2ccc(C(C)N3CCCC3)cc2)cn(C)c1=O (stereo not shown) [Compound I-5]
64 nM | COc1cc(-c2cc(I)c(=O)n(C)c2)ccc1C(=O)N1CCNCC1 [Compound I-164, 3-Iodo-5-[3-methoxy-4-(piperazine-1-carbonyl)-phenyl]-1-methyl-1H-pyridin-2-one]
226 nM | COc1cc(-c2cn(C)c(=O)c(C)c2C)ccc1C1(N2CCN(C)CC2)CC1 [Compound I-111]
870 nM | Cc1cc(-c2ccc(CN3CCCC3)cc2)cn(C)c1=O [Compound I-180]
163 nM | COc1cc(-c2cc(C)c(=O)n(C)c2C)ccc1C1(N(C)C)CCC1 [Compound I-121]
74 nM | COc1cc(-c2cc(C)c(=O)n(C)c2)ccc1CN1CC(OC)C1 [Compound I-50]

— patent publication US11319318B2, “Pyridinones and isoquinolinones as inhibitors of the bromodomain BRD9” (Boehringer Ingelheim International GmbH, priority 2015, dated 2022)
